The record followed here is patent US20050038248A1, “Chemotherapeutic agents” (priority 2001, published 2005).

Read-outs that look alike come from different tables or passages of the source.

Common to all, as to assay type: cell-based
One data set relates to rat aorta ring. Briefly: Rat aorta assay for angiogenesis inhibition (rat aorta ring model). The conditions noted are these: for inhibition at 0.5 µg/mL: 0.5 μg/mL; for inhibition at 1 µg/mL: 1 μg/mL. An excerpt: Rat Aorta Assay for Angiogenesis Inhibition
The rat aorta ring model based on that described by Nicosia and Ottinetti (Nicosia, R. F. et al. Lab. Investigation 63: 115, 1990; Nicosia, R. F. et al. Cell. Dev. Biol. 26: 119-128, 1990), was used throughout the assay.
The agarose was made up as a 1.5% solution in distilled water and brought to the boil to form a clear solution which was poured into sterile 9 cm petri dishes, covered and allowed to cool and set.
Maintaining sterile conditions, agarose rings were obtained by punching two concentric circles, with sterile10 and 17 mm hole punches, respectively, in the agarose gel. Using sterile forceps, the rings are removed and placed, three per well in each of the 6-well plates.
The MEM was prepared according to manufacturer's directions, but before filtering through a 0.22 μm filter, HEPES and L-glutamine were added to give 10 mM and 1 mM concentrations respectively with pH adjusted to 7.4. Eight hundred mL of this medium were filtered through a 0.2 μm filter along with the antibiotics (50 mg/L Gentamycin sulphate and 2.5 mg/L Amphotericin B) and 200 mL of FCS (to give 20%) to yield one litre of medium.
The aorta was removed from a 3-4 month male Copenhagen rat and transferred to a dissecting dish where it was cleaned and carefully stripped of the fibroadipose tissue surrounding it. Rings of 0.5 mm were cut, using a fresh scalpel blade, from the length of the aorta. These were kept under sterile conditions in a biohazard hood where they were washed 12 times with MEM.
Before transferring the aortic rings to the culture plate, the bottom of each agarose well was coated with 150 μL of clotting fibrinogen. Fibrinogen was made up as a 3 mg/mL solution in MEM, while thrombin made up in distilled water to give a concentration of 50 U/mL. The fibrinogen (1 mL) and the thrombin (20 μL) reacted within 30 sec to form a solid gel.
The aortic rings were transferred to the 6-well plates, with one ring placed in the center of each agarose well. Fresh fibrinogen/thrombin was made up as before and 150 μL was used to seal in each aortic ring. The gels were rested for approximately 2 hours before the medium was added.
[…] The compounds were made up as 6 mg/mL solution in water or DMSO. The test solutions were added to each well with the medium.
Six mL of MEM were carefully added to each of three wells to become the controls. MEM, along with the test compounds were added to the remaining wells and all were covered and transferred to the CO2 Incubator at 37° C., where they were kept for the next 14 days.
However, by the fifth day, there were noticeable changes in the tissue. Micro-vessels were seen and scored. We have based the scoring method on that used by Liekens et al. (Liekens, S., et al. Oncol. Res. 9: 173-181, 1997) in which 0 meant no vessels and 10 meant maximum vessels; the score is then converted into a percentage inhibition of vessel growth.

For data set [1], the system named is HeLa cervical adenocarcinoma (epithelial) cells. The experiment in a line: Cytotoxicity assay (WST-1). As to conditions: 100 μM test compound, 72 hours. As for the experimental part: (§1) HeLa cervical adenocarcinoma (epithelial) cells were cultured in the presence of 100 μM of test compound for 72 hours and cell viability was measured using the WST-1 tetrazolium salt (cleaved to formazan by mitochondrial respiratory chain enzymes, which are only active in viable cells). The absorbance of the dye solution was measured at 450 nm. Controls included cells alone, 0.05% NP-40 plus cells (100% cytotoxicity control) and each of the compound vehicles alone, DMSO or water at the same final concentration in medium as the compound in test wells. % Cytotoxicity was calculated as follows: % cytotoxicity=100×(1-ODtest compound/ODcells alone).
In general terms: Tetrazolium dyes change colour on reduction, which living cells bring about.

Data set [2] concerns HUVEC. The experiment in a line: Growth inhibition assay (crystal violet). As to conditions: HUVEC proliferation, 72 h. As for the experimental part: HUVEC (1.5×10^3) are plated in a 96-well plate in 100 μL of EBM-2 (Clonetic # CC3162). After 24 h (day 0), the test compound (100 μL) is added to each well at twice the desired concentration (5-7 concentration levels) in EBM-2 medium. On day 0, one plate is stained with 0.5% crystal violet in 20% methanol for 10 minutes, rinsed with water, and air-dried. The remaining plates are incubated for 72 h at 37° C. After 72 h, plates are stained with 0.5% crystal violet in 20% methanol, rinsed with water and air-dried. The stain is eluted with 1:1 solution of ethanol:0.1M sodium citrate (including day 0 plate), and absorbance is measured at 540 nm with an ELISA reader (Dynatech Laboratories). Day 0 absorbance is subtracted from the 72 h plates and data is plotted as percentage of control proliferation (vehicle treated cells). IC50 (drug concentration causing 50% inhibition) is calculated from the plotted data.

Data set [3] can be described thus: Cytotoxicity assay (WST-1). As to conditions: human, HeLa cervical adenocarcinoma (epithelial) cells, 100 μM test compound. On the procedure:
as §1

Data set [4] relates to HUVEC. The experiment in a line: Cord formation assay on matrigel. As to conditions: Homo sapiens, 24 h incubation. As for the experimental part: Matrigel (60 μL of 10 mg/mL) is placed in each well of an ice-cold 96-well plate. The plate is allowed to sit at room temperature for 15 minutes then incubated at 37° C. for 30 minutes to permit the matrigel to polymerize. In the mean time, HUVEC are prepared in EGM-2 (Clonetic # CC3162) at a concentration of 2×10^5 cells/mL. The test compound is prepared at twice the desired concentration (5 concentration levels) in the same medium. Cells (50 μL) and 2×drug […] is mixed and 200 μL of this suspension are placed in duplicate on the polymerized matrigel. After 24 h incubation, triplicate pictures are taken for each concentration using a Bioquant Image Analysis system. Drug effect (IC50) is assessed compared to untreated controls by measuring the length of cords formed and number of junctions.

Data set [5] concerns HUVEC. Briefly: Cell migration assay (Boyden chamber). As to conditions: Homo sapiens, 5 h incubation. As for the experimental part: Migration is assessed using the 48-well Boyden chamber and 8 μm pore size collagen-coated (10 μg/mL rat tail collagen; Collaborative Laboratories) polycarbonate filters (Osmonics, Inc.). The bottom chamber wells receive 27-29 μL of DMEM medium alone (baseline) or medium containing chemo-attractant (bFGF, VEGF or Swiss 3T3 cell conditioned medium). The top chambers receive 45 μL of HUVEC cell suspension […] prepared in DMEM+1% BSA with or without test compound. After 5 h incubation at 37° C., the membrane is rinsed in PBS, fixed and stained in Diff-Quick solutions. The filter is placed on a glass slide with the migrated cells facing down and cells on top are removed using a Kimwipe. The testing is performed in 4-6 replicates and five fields are counted from each well. Negative unstimulated control values are subtracted from stimulated control and drug treated values and data is plotted as mean migrated cell±S.D. IC50 is calculated from the plotted data.

Where [6] appears, read: Rattus norvegicus, 168 h, 10 μg/mL, day 7, read-out: Growth Inhibition % (Day).
Setting [7] is: Rattus norvegicus, 120 h, day 5, read-out: Growth Inhibition % (Day).
[8] abbreviates: Rattus norvegicus, 120 h, 4 μg/mL, day 5, read-out: Growth Inhibition % (Day).
Where [9] appears, read: Rattus norvegicus, 120 h, 10 μg/mL, day 5, read-out: Growth Inhibition % (Day).
The mark [10] stands for this setting: Rattus norvegicus, 288 h, day 12, read-out: Growth Inhibition % (Day).
[11] abbreviates: Rattus norvegicus, 288 h, 4 μg/mL, day 12, read-out: Growth Inhibition % (Day).
[12] abbreviates: Rattus norvegicus, 288 h, 10 μg/mL, day 12, read-out: Growth Inhibition % (Day).
[13] abbreviates: Rattus norvegicus, 168 h, day 7, read-out: Growth Inhibition % (Day).
[14] abbreviates: Rattus norvegicus, 168 h, 4 μg/mL, day 7, read-out: Growth Inhibition % (Day).

As for `CC(C)c1cccc(C(C)C)c1NC(=O)c1ccccc1C(=O)Nc1c(C(C)C)cccc1C(C)C` [Example 6, N,N′-Bis-(2,6-diisopropylphenyl)-phthalamide], the inhibition – broadly, the share of the control response that was lost under treatment – at 10 µg/mL with rat aorta ring (setting [6]) came to 10%.
As to `CC(C)c1cccc(C(C)C)c1NC(=O)c1ccccc1S(=O)(=O)Nc1c(C(C)C)cccc1C(C)C` [Example 1, N-(2,6,-Diisopropylphenyl)-2-(2,6-diisopropylphenylsulfamoyl)-benzamide], the “Growth Inhibition % (Day)” value is 100 (7) % in the data set with rat aorta ring (4 μg/mL, day 7); 100 (14) % in the data set with rat aorta ring (4 μg/mL, day 14); 98 (7) % with rat aorta ring (20 μg/mL, day 7); 98 (14) % with rat aorta ring (20 μg/mL, day 14); 100 (7) % with rat aorta ring (50 μg/mL, day 7); 100 (14) % with rat aorta ring (50 μg/mL, day 14). In addition, the “% Cytotoxicity” value in data set [1] came to 94%. Besides, in the data set on HUVEC [2], inhibition was half-maximal at 2.4 ± 0.5 µM (IC50).
As for `COc1ccc(NS(=O)(=O)c2ccccc2NC(=O)c2ccncc2)cc1` [Example 3, N-[2-(4-Methoxyphenylsulfamoyl)-phenyl]-isonicotinamide], the inhibition at 0.5 µg/mL with rat aorta ring (setting [7]) was determined as 100%; with rat aorta ring (setting [10]), 60%. The inhibition at 1 µg/mL in the data set with rat aorta ring (setting [7]) and in the data set with rat aorta ring (setting [10]) was 100% each time. The inhibition at 4 µg/mL in the data set with rat aorta ring (setting [8]) and in the data set with rat aorta ring (setting [11]) was 100% throughout. In addition, the inhibition at 10 µg/mL with rat aorta ring (setting [9]) and in the data set with rat aorta ring (setting [12]) was 100% in each case. Also, in data set [3], the cytotoxicity at 72 hours, 100 µM turned out to be 92%. In addition, the IC50 (in general, the concentration at which inhibition is half-maximal) in the data set with HUVEC [2] (Homo sapiens) stood at 0.29 ± 0.22 µM; with HUVEC [4], 0.48 ± 0.27 µM; with HUVEC [5], 0.68 ± 0.17 µM.
With `COc1ccc(NS(=O)(=O)c2ccccc2NC(=O)c2ccc(F)cc2)cc1` [Example 5, N-[2-(4-Methoxyphenylsulfamoyl)-phenyl]-4-fluorobenzamide], the inhibition at 10 µg/mL came out at 80% in the data set with rat aorta ring (setting [9]) and 70% with rat aorta ring (setting [12]). The cytotoxicity at 72 hours, 100 µM in data set [3] came to 91%. The IC50 was found to be 7.1 ± 2.7 µM in the data set on HUVEC [2] (Homo sapiens) and 36.1 ± 9.4 µM with HUVEC [4].
`COc1ccc(NS(=O)(=O)c2ccccc2S(=O)(=O)Nc2ccc(OC)cc2)cc1` [Example 12, Benzene-1,2-disulfonic acid bis-[(4-methoxyphenyl)-amide]]: in the data set on rat aorta ring (setting [12]), the inhibition at 10 µg/mL is 20%. Also, the results for the IC50 in the data set on HUVEC [2] (Homo sapiens), in the data set with HUVEC [4] and with HUVEC [5] were above 75 µM, above 50 µM and 2.3 µM, respectively.
With `COc1ccc(NS(=O)(=O)c2ccccc2NS(=O)(=O)c2cccs2)cc1` [Example 13, Thiophene-2-sulfonic acid [2-(4-methoxyphenylsulfamoyl)-phenyl]-amide], the inhibition at 0.5 µg/mL with rat aorta ring (setting [13]) and in the data set with rat aorta ring (setting [10]) was 90% each time. Also, the inhibition at 1 µg/mL in the data set with rat aorta ring (setting [13]) and in the data set on rat aorta ring (setting [10]) was 100% each time. The inhibition at 4 µg/mL with rat aorta ring (setting [14]) and in the data set with rat aorta ring (setting [11]) was 100% throughout. Besides, the inhibition at 10 µg/mL in the data set on rat aorta ring (setting [6]) and in the data set on rat aorta ring (setting [12]) was 100% throughout. Besides, the IC50 amounted to 0.28 ± 0.22 µM in the data set on HUVEC [2] (Homo sapiens), 0.41 ± 0.03 µM in the data set with HUVEC [4] and 0.62 ± 0.25 µM in the data set with HUVEC [5].
For the compound `O=C(Nc1ccccc1)c1ccccc1S(=O)(=O)Nc1ccccc1` [Example 2, N-Phenyl-2-phenylsulfamoylbenzamide], the inhibition at 4 µg/mL with rat aorta ring (setting [8]) came out at 50%. In addition, the inhibition at 20 µg/mL in the data set on rat aorta ring (Rattus norvegicus, 120 h, 20 μg/mL, day 5, read-out: Growth Inhibition % (Day)) came to 90%. The inhibition at 50 µg/mL with rat aorta ring (Rattus norvegicus, 120 h, 50 μg/mL, day 5, read-out: Growth Inhibition % (Day)) is 70%.
For the compound `COc1ccc(N(Cc2ccccc2)S(=O)(=O)c2ccccc2C(=O)Nc2ccncc2)cc1` [Example 15, 2-[Benzyl-(4-methoxyphenyl)-sulfamoyl]-N-pyridin-4-yl-benzamide], in the data set on rat aorta ring (setting [14]), the inhibition at 4 µg/mL was 90%.
On to `COc1ccc(S(=O)(=O)Nc2ccccc2C(=O)Nc2ccncc2)cc1` [Example 8, 2-(4-Methoxybenzenesulfonylamino)-N-pyridin-4-yl-benzamide], for which the inhibition at 10 µg/mL turned out to be 80% in the data set on rat aorta ring (setting [9]) and 30% with rat aorta ring (setting [12]). Besides, the cytotoxicity at 72 hours, 100 µM in data set [3] came out at 84%.
On to `COc1ccc(NS(=O)(=O)c2ccccc2C(=O)Nc2ccncc2)cc1` [Example 16], for which the “Growth Inhibition % (Day)” value in the data set on rat aorta ring (10 μg/mL, day 7) is recorded as 70 (7) %; in the data set on rat aorta ring (10 μg/mL, day 12), 10 (12) %.
`COc1ccc(NS(=O)(=O)c2ccccc2NC(=O)c2ccc([N+](=O)[O-])cc2)cc1` [Example 4, N-[2-(4-Methoxyphenylsulfamoyl)-phenyl]-4-nitrobenzamide] displayed a cytotoxicity at 72 hours, 100 µM in data set [3] of 56%.
